Legend:
[1] = test system: fibroblasts (PHF) co-cultured with tumor cells of human gastric adenocarcinoma (23132/87); assay: Marker expression (IHC) in PHF co-cultured with 23132/87 tumor cells; assay type: cell-based; settings: co-culture with 23132/87; SP 1 μM + antagonist 1 μM; 48 h;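 note: cultures grown in fresh plasma from a healthy human donor, values give the percentage of PHF fibroblasts positive for the marker, each experiment run in six replicates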
Procedure: (§1) All cultures were maintained 48 hours, following which the same cells were included in paraffin blocks for subsequent analysis of the expression of different markers by immunohistochemistry (see Example 1). The primary antibodies used to perform immunohistochemical assays and their concentration are detailed in Example 2. All experiments were carried out sixfold. Analyzed markers in fibroblast cells (stromal cells) were: TGF-α, TGF-β1, TGF-β2, TGF-β3, SPARC, MMP-3, MMP-7, MMP-9, MMP-11, MMP-13 and MMP-14.

[2] = test system: fibroblasts (PHF) co-cultured with tumor cells of human colon adenocarcinoma (SW-403); assay: Marker expression (IHC) in PHF co-cultured with SW-403 tumor cells; assay type: cell-based; settings: co-culture with SW-403; SP 1 μM + antagonist 1 μM; 48 h
Procedure: as §1

[3] = test system: fibroblasts (PHF) co-cultured with tumor cells of human cervix carcinoma (KB); assay: Marker expression (IHC) in PHF co-cultured with KB tumor cells; assay type: cell-based; settings: co-culture with KB; SP 1 μM + antagonist 1 μM; 48 h;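 note: percentage of PHF fibroblasts showing expression of each marker, cultured in fresh blood plasma from a healthy human donor, six replicates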
Procedure: (§2) All cultures were maintained 48 hours, following which the same cells were included in paraffin blocks for subsequent analysis of the expression of different markers by immunohistochemistry (see Example 1). […] All experiments were carried out sixfold. Analyzed markers in fibroblast cells (stromal cells) were: TGF-α, TGF-β1, TGF-β2, TGF-β3, SPARC, MMP-3, MMP-7, MMP-9, MMP-11, MMP-13 and MMP-14.

[4] = test system: fibroblasts (PHF) co-cultured with tumor cells, thyroid carcinoma (reference A-427); assay: Marker expression (IHC) in PHF co-cultured with thyroid carcinoma tumor cells; assay type: cell-based, human; settings: co-culture with thyroid carcinoma cells; SP 1 μM + antagonist 1 μM; 48 h;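 note: grown in fresh plasma from a healthy human donor, read-out is percent of fibroblasts positive for each marker, compared with fibroblasts cultured alone, run in six replicates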
Procedure: as §2

[5] = test system: fibroblasts (PHF) co-cultured with tumor cells, thyroid carcinoma; assay: as above; assay type: cell-based, human; settings: co-culture with thyroid carcinoma cells; SP 1 μM + antagonist 1 μM; 48 h
Procedure: as §2

[6] = test system: fibroblasts (PHF) co-cultured with human melanoma tumor cells (MEL-HO1); assay: Marker expression (IHC) in PHF co-cultured with MEL-HO1 tumor cells; assay type: cell-based; settings: PHF co-cultured with MEL-HO1 + SP + NK1 antagonist;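 note: values are the percentage of fibroblasts positive for each marker, with cultures grown in fresh healthy-donor blood plasma and each experiment run six times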
Procedure: as §2

[7] = test system: fibroblast cells in co-culture with cells isolated from primary human tumors; assay: Marker expression (IHC) in fibroblasts co-cultured with primary human tumor cells (colon, pancreatic, lung carcinoma, glioma, multiple myeloma); assay type: cell-based
Procedure: To check that the interaction of the human primary tumor cells with stromal cells, [human fibroblasts,] stimulates the secretion of substances of importance for survival and tumor progression, co-cultures were performed using stromal cells with human fibroblast-tumor cells obtained directly from primary human tumors.
On this occasion, in order to identify, using immunohistochemical techniques, the secretion of substances of importance for the survival and progression of tumors, the following antibodies were used: TGF-α (SAB4502953), TGF-β1 (SAB4502954), TGF-β2 (SAB4502956), TGF-β3 (SAB4502957), SPARC (HPA002989), MMP-3 (HPA007875), MMP-7 (SAB4501894), MMP-9 (SAB4501896), MMP-11 (SAB4501898) MMP-13 (SAB4501900) and MMP-14 (SAB4501901) using specific antibodies against them. All antibodies used were rabbit polyclonal antibodies obtained from Sigma-Aldrich and were used at a concentration of 1/1000 to achieve these immunohistochemical studies. All experiments were carried out sixfold.

[8] = Primary tumor cells (colon carcinoma) co-cultured + fibroblast + SP (1 μM) + NK1 antagonist 1 μM
[9] = co-culture with cells isolated from glioma, SP 1 μM + antagonist 1 μM
[10] = co-culture with cells isolated from lung cancer, SP 1 μM + antagonist 1 μM
[11] = co-culture with cells isolated from multiple myeloma, SP 1 μM + antagonist 1 μM
[12] = co-culture with cells isolated from pancreatic carcinoma, SP 1 μM + antagonist 1 μM

CC(=O)N1CCN([C@H]2CCN(C(=O)N(C)[C@H](C)c3cc(C(F)(F)F)cc(C(F)(F)F)c3)[C@@H](c3ccc(F)cc3C)C2)CC1 [Casopitant]
0%: PHF cells expressing MMP-3 [1] | PHF cells expressing MMP-7 [1] | PHF cells expressing MMP-9 [1] | PHF cells expressing MMP-11 [1] | PHF cells expressing MMP-13 [1] | PHF cells expressing MMP-14 [1] | PHF cells expressing SPARC [1] | PHF cells expressing TGF-α [1] | PHF cells expressing TGF-β1 [1] | PHF cells expressing TGF-β2 [1] | PHF cells expressing TGF-β3 [1] | PHF cells expressing MMP-3 [2] | PHF cells expressing MMP-7 [2] | PHF cells expressing MMP-9 [2] | PHF cells expressing MMP-11 [2] | PHF cells expressing MMP-13 [2] | PHF cells expressing MMP-14 [2] | PHF cells expressing SPARC [2] | PHF cells expressing TGF-α [2] | PHF cells expressing TGF-β1 [2] | PHF cells expressing TGF-β2 [2] | PHF cells expressing TGF-β3 [2] | PHF cells expressing MMP-3 [3] | PHF cells expressing MMP-7 [3] | PHF cells expressing MMP-9 [3] | PHF cells expressing MMP-11 [3] | PHF cells expressing MMP-13 [3] | PHF cells expressing MMP-14 [3] | PHF cells expressing SPARC [3] | PHF cells expressing TGF-α [3] | PHF cells expressing TGF-β1 [3] | PHF cells expressing TGF-β2 [3] | PHF cells expressing TGF-β3 [3] | PHF cells expressing MMP-3 [4] | PHF cells expressing MMP-7 [4] | PHF cells expressing MMP-9 [4] | PHF cells expressing MMP-13 [4] | PHF cells expressing MMP-14 [4] | PHF cells expressing SPARC [4] | PHF cells expressing TGF-α [4] | PHF cells expressing TGF-β1 [4] | PHF cells expressing TGF-β2 [4] | PHF cells expressing TGF-β3 [4] | PHF cells expressing MMP-11 [5] | cells expressing MMP-3 [6] | cells expressing MMP-7 [6] | cells expressing MMP-9 [6] | cells expressing MMP-11 [6] | cells expressing MMP-13 [6] | cells expressing MMP-14 [6] | cells expressing SPARC [6] | cells expressing TGF-α [6] | cells expressing TGF-β1 [6] | cells expressing TGF-β2 [6] | cells expressing TGF-β3 [6] | Percentage of fibroblast cells which expressed MMP-3 [7, 8] | Percentage of fibroblast cells which expressed MMP-7 [7, 8] | Percentage of fibroblast cells which expressed MMP-9 [7, 8] | Percentage of fibroblast cells which expressed MMP-11 [7, 8] | Percentage of fibroblast cells which expressed MMP-13 [7, 8] | Percentage of fibroblast cells which expressed MMP-14 [7, 8] | Percentage of fibroblast cells which expressed SPARC [7, 8] | Percentage of fibroblast cells which expressed TGFα [7, 8] | Percentage of fibroblast cells which expressed TGFβ1 [7, 8] | Percentage of fibroblast cells which expressed TGFβ2 [7, 8] | Percentage of fibroblast cells which expressed TGFβ3 [7, 8] | Percentage of fibroblast cells which expressed MMP-3 [7, 9] | Percentage of fibroblast cells which expressed MMP-7 [7, 9] | Percentage of fibroblast cells which expressed MMP-9 [7, 9] | Percentage of fibroblast cells which expressed MMP-11 [7, 9] | Percentage of fibroblast cells which expressed MMP-13 [7, 9] | Percentage of fibroblast cells which expressed MMP-14 [7, 9] | Percentage of fibroblast cells which expressed SPARC [7, 9] | Percentage of fibroblast cells which expressed TGFα [7, 9] | Percentage of fibroblast cells which expressed TGFβ1 [7, 9] | Percentage of fibroblast cells which expressed TGFβ2 [7, 9] | Percentage of fibroblast cells which expressed TGFβ3 [7, 9] | Percentage of fibroblast cells which expressed MMP-3 [7, 10] | Percentage of fibroblast cells which expressed MMP-7 [7, 10] | Percentage of fibroblast cells which expressed MMP-9 [7, 10] | Percentage of fibroblast cells which expressed MMP-11 [7, 10] | Percentage of fibroblast cells which expressed MMP-13 [7, 10] | Percentage of fibroblast cells which expressed MMP-14 [7, 10] | Percentage of fibroblast cells which expressed SPARC [7, 10] | Percentage of fibroblast cells which expressed TGFα [7, 10] | Percentage of fibroblast cells which expressed TGFβ1 [7, 10] | Percentage of fibroblast cells which expressed TGFβ2 [7, 10] | Percentage of fibroblast cells which expressed TGFβ3 [7, 10] | Percentage of fibroblast cells which expressed MMP-3 [7, 11] | Percentage of fibroblast cells which expressed MMP-7 [7, 11] | Percentage of fibroblast cells which expressed MMP-9 [7, 11] | Percentage of fibroblast cells which expressed MMP-11 [7, 11] | Percentage of fibroblast cells which expressed MMP-13 [7, 11] | Percentage of fibroblast cells which expressed MMP-14 [7, 11] | Percentage of fibroblast cells which expressed SPARC [7, 11] | Percentage of fibroblast cells which expressed TGFα [7, 11] | Percentage of fibroblast cells which expressed TGFβ1 [7, 11] | Percentage of fibroblast cells which expressed TGFβ2 [7, 11] | Percentage of fibroblast cells which expressed TGFβ3 [7, 11] | Percentage of fibroblast cells which expressed MMP-3 [7, 12] | Percentage of fibroblast cells which expressed MMP-7 [7, 12] | Percentage of fibroblast cells which expressed MMP-9 [7, 12] | Percentage of fibroblast cells which expressed MMP-11 [7, 12] | Percentage of fibroblast cells which expressed MMP-13 [7, 12] | Percentage of fibroblast cells which expressed MMP-14 [7, 12] | Percentage of fibroblast cells which expressed SPARC [7, 12] | Percentage of fibroblast cells which expressed TGFα [7, 12] | Percentage of fibroblast cells which expressed TGFβ1 [7, 12] | Percentage of fibroblast cells which expressed TGFβ2 [7, 12] | Percentage of fibroblast cells which expressed TGFβ3 [7, 12]

Source: patent US20180071317A1, “USE OF AGENTS THAT ALTER THE PERITUMORAL ENVIRONMENT FOR THE TREATMENT OF CANCER” (SERVICIO ANDALUZ DE SALUD, priority 2011, published 2018)
